Data on 15 compounds can be found in patent publication US8236819B2, “Dihydro-[1H]-quinolin-2-one derivatives as RXR agonists for the treatment of dyslipidemia, hypercholesterolemia and diabetes” (Janssen Pharmaceutica N.V., priority 2005, dated 2012).

The target of one series is T1, RXR (Homo sapiens, UniProt P19793).
T1 construct: expressed in transfected cells; host or cells: HEK293
T1 sequence (P19793 227-458 limits assumed): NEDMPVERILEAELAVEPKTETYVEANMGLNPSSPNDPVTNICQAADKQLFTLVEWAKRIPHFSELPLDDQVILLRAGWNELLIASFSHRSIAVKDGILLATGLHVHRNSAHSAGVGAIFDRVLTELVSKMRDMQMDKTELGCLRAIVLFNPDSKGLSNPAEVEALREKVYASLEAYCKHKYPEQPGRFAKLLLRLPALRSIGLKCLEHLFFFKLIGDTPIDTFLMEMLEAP
As to the kind of experiment: RXR co-transfection assay (GAL4 fusion, luciferase reporter, HEK293 cells). The class given is cell-based. The settings on record: for RXR co-transfection (% of 2,4-thiazolidinedione, 5-[[3-(1-ethyl-1,2,3,4-tetrahydro-4,4,6-trimethyl-2-oxo-7-quinolinyl)-4-(trifluoro-methoxy)phenyl]methylene]-, (5Z)-): relative to the reference thiazolidinedione. The procedure:
The nucleic acid sequence from 676-1464 bp (accession number X52773) encoding the ligand binding domains was subcloned into the pM vector (BD Biosciences Clontech, Palo Alto, Calif.) and were fused with the DNA binding domain of yeast GAL4. HEK293 cells were cultured in DMEM/F12 medium supplemented with 10% FBS and 1% I-glutamine (growth medium). Cells were seeded at a density of 5-10×10^6 cells in 50 ml of growth medium and left overnight. The medium was removed and the cells were washed with 15 ml of OptiMEM serum free medium (Invitrogen Corp). The cells were transfected using OptiMEM serum free medium and DMRIE transfection reagent (Invitrogen Corp). Approximately 10-30 ng of DNA for the different receptors and 5-10 ng of the luciferase reporter (1:1 ratio for RAR and 4:1 ratio for RXR of receptor DNA:reporter DNA) were gently mixed with 51 µl of DMRIE reagent in a total volume of 17 ml of OptiMEM medium. Eighteen hours after transfection, the cells were washed once with growth medium and then incubated for 6 hrs in 30 ml of growth medium. The cells were then trypsinized, and reseeded at a density of 50,000 per well in 96 well plates and left overnight. The medium was replaced with 90 µl of medium containing DMEM/F12 supplemented with 0.5% charcoal-treated FBS (HyClone; Logan, Utah) and 1% glutamine. Compounds or vehicle were added in 10 µl of 10× concentration of compound or vehicle (0.1% dimethyl sulfoxide). The cells were treated for 16-18 hours, lysed and assayed for luciferase activity using the Steady Glo luciferase assay kit (Promega, Madison, Wis.).
In general terms: Reporter assays use an easily measured gene product as a stand-in for the process of interest.

Series [1] concerns ABCA1 mRNA in THP-1 cells. As to the kind of experiment: ABCA1 bDNA assay (ABCA1 mRNA induction). The class given is cell-based, human. The settings on record: for EC50 / Emax: Homo sapiens; for EC50: THP-1, THP-1 cells, ABCA1 mRNA induction; for ABCA1 (% max MX-6054) @3 μM / Emax / ABCA1 (% max MX-6054) @0.3 μM: THP-1 cells, relative to max of MX-6054; for Emax: concentration not given. The procedure: THP-1 cells, a human monocytic cell line, were obtained from ATCC and maintained in RPMI (Gibco) supplemented with 10% fetal bovine serum (Gibco), 2 mM L-glutamine and 1% antibiotic-antimycotic in 5% CO2 at 37° C. For ABCA1 mRNA induction assays, the cells were pelleted and resuspended in RPMI supplemented with 0.5% charcoal treated serum (Hyclone), 2 mM glutamine and 1% antibiotic-antimycotic. The cells were plated at a density of 40,000 cells/90 µl and incubated as above for at least 4 hours before the initiation of treatments. Compounds were prepared as 10 mM stocks in DMSO. For treatments, the compounds were diluted in medium and 10 µl of 10× stocks were added to the cells at a final concentration 0.1% DMSO. The cells were incubated for the desired amount of time (usually 18-24 hrs) and then lyzed with 50 µl of Quantigene HV bDNA lysis buffer which also contained the ABCA1 bDNA probes (probe sequences shown below): […]

Where “and” joins values, the source holds several entries; their conditions need not be identical. Equal entries are not always repeated. Some results are limits rather than exact numbers.

The EC50 is the concentration needed to bring the measured effect to its halfway point. The low end stands for an effect from little substance, the high end for a need for much substance. Broadly, the Emax is the size of the effect at its maximum, as opposed to the concentration needed. As usually defined, the melting point is the temperature of the solid-liquid transition.

For `Cc1cc2c(cc1-c1cc([C@@H]3C[C@H]3C(=O)O)ccc1OC(F)(F)F)N(C)C(=O)CC2(C)C` (racemic) [Compound 42, (□)-2-[3-(1,4,4,6-Tetramethyl-2-oxo-1,2,3,4-tetrahydro-quinolin-7-yl)-4-trifluoromethoxy-phenyl]-cyclopropanecarboxylic acid], at RXR, a half-maximal response (EC50) required 144 nM and the “RXR co-transfection (% of 2,4-thiazolidinedione, 5-[[3-(1-ethyl-1,2,3,4-tetrahydro-4,4,6-trimethyl-2-oxo-7-quinolinyl)-4-(trifluoro-methoxy)phenyl]methylene]-, (5Z)-)” value is listed as “(108%)”. Further, in series [1], the EC50 is above 1400 nM and the “ABCA1 (% max MX-6054) @3 μM” value is “(38% @3 μM)”.

Take `Cc1cc2c(cc1-c1cc([C@@H]3C[C@H]3C(=O)O)ccc1OC(F)(F)F)N(C(C)C)C(=O)CC2(C)C` (racemic) [Compound 43, (□)-2-[3-(1-Isopropyl-4,4,6-trimethyl-2-oxo-1,2,3,4-tetrahydro-quinolin-7-yl)-4-trifluoromethoxy-phenyl]-cyclopropanecarboxylic acid]: the concentration giving a half-maximal response (EC50) on RXR is 2.9 nM and 7.1 nM. Moreover, in series [1], the EC50 is above 1000 nM and the “ABCA1 (% max MX-6054) @3 μM” value is “(56% @3 μM)”.

In the case of `COc1ccc([C@@H]2C[C@H]2C(=O)O)cc1-c1cc2c(cc1C)C(C)(C)CC(=O)N2C(C)C` (racemic) [Compound 44, (□)-2-[3-(1-Isopropyl-4,4,6-trimethyl-2-oxo-1,2,3,4-tetrahydro-quinolin-7-yl)-4-methoxy-phenyl]-cyclopropanecarboxylic acid], the concentration giving a half-maximal response (EC50) at RXR is 251 nM and 164 nM; in series [1] it was 1520 nM. In addition, the Emax in series [1] was determined as 29%.

In turn, `CCN1C(=O)CC(C)(C)c2cc(C)c(-c3cc(/C=C/C(=O)O)ccc3OCC(F)(F)F)cc21` [Compound 1, 3-[3-(1-Ethyl-4,4,6-trimethyl-2-oxo-1,2,3,4-tetrahydro-quinolin-7-yl)-4-(2,2,2-trifluoro-ethoxy)-phenyl]-acrylic acid] registered a melting point of 237 to 241 °C. Besides, the EC50 at RXR was 57.2 nM and 72.3 nM and 72.4 nM. Besides, the maximal response (Emax) in series [1] came out at 60%.

For `CCN1C(=O)CC(C)(C)c2cc(C)c(-c3cc(/C=C/C(=O)O)ccc3OC(F)(F)F)cc21` [Compound 2, 3-[3-(1-Ethyl-4,4,6-trimethyl-2-oxo-1,2,3,4-tetrahydro-quinolin-7-yl)-4-trifluoromethoxy-phenyl]-acrylic acid], at RXR, the EC50 was 1 nM and 2.5 nM. In addition, in series [1], the 50% effective concentration (EC50) was around 3.6 nM and the maximal effect (Emax) amounted to 81%.

As to `Cc1cc2c(cc1-c1cc(/C=C/C(=O)O)ccc1OC(F)(F)F)N(C)C(=O)CC2(C)C` [Compound 3, 3-[3-(1,4,4,6-Tetramethyl-2-oxo-1,2,3,4-tetrahydro-quinolin-7-yl)-4-trifluoromethoxy-phenyl]-acrylic acid], at RXR, the concentration giving a half-maximal response (EC50) is 12.8 nM and 35.8 nM. In series [1], the midpoint of the response, the EC50, lay at 200 nM and the “ABCA1 (% max MX-6054) @3 μM” value is “(56% @3 μM)”.

Turning to `Cc1cc2c(cc1-c1cc(/C=C/C(=O)O)ccc1OC(F)(F)F)N(C(C)C)C(=O)CC2(C)C` [Compound 4, 3-[3-(1-Isopropyl-4,4,6-trimethyl-2-oxo-1,2,3,4-tetrahydro-quinolin-7-yl)-4-trifluoromethoxy-phenyl]-acrylic acid], at RXR, the EC50 stood at 16.3 nM and the “RXR co-transfection (% of 2,4-thiazolidinedione, 5-[[3-(1-ethyl-1,2,3,4-tetrahydro-4,4,6-trimethyl-2-oxo-7-quinolinyl)-4-(trifluoro-methoxy)phenyl]methylene]-, (5Z)-)” value is recorded as “(97%)”. For the same compound, in series [1], the EC50 was 10 nM and the “ABCA1 (% max MX-6054) @0.3 μM” value is “(70.3% @0.3 μM)”.

Turning to `CCN1C(=O)CC(C)(C)c2cc(C)c(-c3cc(/C=C(\C)C(=O)O)ccc3OC(F)(F)F)cc21` [Compound 9, 3-[3-(1-Ethyl-4,4,6-trimethyl-2-oxo-1,2,3,4-tetrahydro-quinolin-7-yl)-4-trifluoromethoxy-phenyl]-2-methyl-acrylic acid], the EC50 at RXR is 31.7 nM and 24.2 nM; in series [1] it was 100 nM. In addition, the “ABCA1 (% max MX-6054) @0.3 μM” value in series [1] was “(39.9% @0.3 μM)”.

Turning to `Cc1cc2c(cc1-c1cc(/C=C/C(=O)O)ccc1OCC(F)(F)F)N(C(C)C)C(=O)CC2(C)C` [Compound 11, 3-[3-(1-Isopropyl-4,4,6-trimethyl-2-oxo-1,2,3,4-tetrahydro-quinolin-7-yl)-4-(2,2,2-trifluoro-ethoxy)-phenyl]-acrylic acid], at RXR, the EC50 is 23.1 nM and the “RXR co-transfection (% of 2,4-thiazolidinedione, 5-[[3-(1-ethyl-1,2,3,4-tetrahydro-4,4,6-trimethyl-2-oxo-7-quinolinyl)-4-(trifluoro-methoxy)phenyl]methylene]-, (5Z)-)” value is “(64%)”. This compound had an EC50 in series [1] of 44 nM.

Regarding `COc1ccc(/C=C/C(=O)O)cc1-c1cc2c(cc1C)C(C)(C)CC(=O)N2C(C)C` [Compound 12, 3-[3-(1-isopropyl-4,4,6-trimethyl-2-oxo-1,2,3,4-tetrahydro-quinolin-7-yl)-4-methoxy-phenyl]-acrylic acid], at RXR, the EC50 was 71.2 nM and 62.7 nM and 36.7 nM; the “RXR co-transfection (% of 2,4-thiazolidinedione, 5-[[3-(1-ethyl-1,2,3,4-tetrahydro-4,4,6-trimethyl-2-oxo-7-quinolinyl)-4-(trifluoro-methoxy)phenyl]methylene]-, (5Z)-)” value is “(85%)”. In series [1], the EC50 stood at 510 nM and the Emax was determined as 59%.

For the compound `CCN1C(=O)CC(C)(C)c2cc(C)c(-c3cc(CCC(=O)O)ccc3OC(F)(F)F)cc21` [Compound 26, 3-[3-(1-Ethyl-4,4,6-trimethyl-2-oxo-1,2,3,4-tetrahydro-quinolin-7-yl)-4-trifluoromethoxy-phenyl]-propionic acid], the EC50 at RXR was 7.1 nM and 7.3 nM. Moreover, in series [1], a half-maximal response (EC50) required 47 nM and the maximal response (Emax) worked out at 56.8%.

`Cc1cc2c(cc1-c1cc(CCC(=O)O)ccc1OC(F)(F)F)N(C(C)C)C(=O)CC2(C)C` [Compound 28, 3-[3-(1-Isopropyl-4,4,6-trimethyl-2-oxo-1,2,3,4-tetrahydro-quinolin-7-yl)-4-trifluoromethoxy-phenyl]-propionic acid]: at RXR, the midpoint of the response, the EC50, lay at 3.4 nM and the “RXR co-transfection (% of 2,4-thiazolidinedione, 5-[[3-(1-ethyl-1,2,3,4-tetrahydro-4,4,6-trimethyl-2-oxo-7-quinolinyl)-4-(trifluoro-methoxy)phenyl]methylene]-, (5Z)-)” value is “(80%)”. Also, in series [1], the midpoint of the response, the EC50, lay at 1 nM and the maximal response (Emax) was determined as 59%.

For `CCN1C(=O)CC(C)(C)c2cc(C)c(-c3cc(C(C)CC(=O)O)ccc3OC(F)(F)F)cc21` (stereo not shown) [Compound 30, 3-[3-(1-Ethyl-4,4,6-trimethyl-2-oxo-1,2,3,4-tetrahydro-quinolin-7-yl)-4-trifluoromethoxy-phenyl]-butyric acid], the EC50 at RXR is 46.3 nM and 29.1 nM. In series [1], this compound gave an EC50 of 347 nM and a maximal response (Emax) of 160%.

In the case of `Cc1cc2c(cc1-c1cc(CCC(=O)O)ccc1OCC(F)(F)F)N(C(C)C)C(=O)CC2(C)C` [Compound 31, 3-[3-(1-Isopropyl-4,4,6-trimethyl-2-oxo-1,2,3,4-tetrahydro-quinolin-7-yl)-4-(2,2,2-trifluoro-ethoxy)-phenyl]-propionic acid], the half-maximal effective concentration (EC50) on RXR was 59.6 nM and 12.6 nM and 37.2 nM. In series [1], this compound came in with an EC50 of 369 nM and an Emax of 45%.

Regarding `CCN1C(=O)CC(C)(C)c2cc(C)c(-c3cc(/C=C\C(=O)O)ccc3OC(F)(F)F)cc21` [Compound 58, 3-[3-(1-Ethyl-4,4,6-trimethyl-2-oxo-1,2,3,4-tetrahydro-quinolin-7-yl)-4-trifluoromethoxy-phenyl]-acrylic acid], the concentration giving a half-maximal response (EC50) at RXR was ~50.9 nM and 27.2 nM; in series [1] it was 886 nM. For the same compound, the maximum response (Emax) in series [1] was 75%.
